Here are results for 12 molecules from PMC7034394 (Journal of medicinal chemistry, 2019).

“Also recorded” adds a separate entry of the source. Bounds are passed on as bounds.

One data set addresses T1, slc26a3 (DRA) (Mus musculus, UniProt Q9WVC8).
T1 sequence (Q9WVC8 1-757): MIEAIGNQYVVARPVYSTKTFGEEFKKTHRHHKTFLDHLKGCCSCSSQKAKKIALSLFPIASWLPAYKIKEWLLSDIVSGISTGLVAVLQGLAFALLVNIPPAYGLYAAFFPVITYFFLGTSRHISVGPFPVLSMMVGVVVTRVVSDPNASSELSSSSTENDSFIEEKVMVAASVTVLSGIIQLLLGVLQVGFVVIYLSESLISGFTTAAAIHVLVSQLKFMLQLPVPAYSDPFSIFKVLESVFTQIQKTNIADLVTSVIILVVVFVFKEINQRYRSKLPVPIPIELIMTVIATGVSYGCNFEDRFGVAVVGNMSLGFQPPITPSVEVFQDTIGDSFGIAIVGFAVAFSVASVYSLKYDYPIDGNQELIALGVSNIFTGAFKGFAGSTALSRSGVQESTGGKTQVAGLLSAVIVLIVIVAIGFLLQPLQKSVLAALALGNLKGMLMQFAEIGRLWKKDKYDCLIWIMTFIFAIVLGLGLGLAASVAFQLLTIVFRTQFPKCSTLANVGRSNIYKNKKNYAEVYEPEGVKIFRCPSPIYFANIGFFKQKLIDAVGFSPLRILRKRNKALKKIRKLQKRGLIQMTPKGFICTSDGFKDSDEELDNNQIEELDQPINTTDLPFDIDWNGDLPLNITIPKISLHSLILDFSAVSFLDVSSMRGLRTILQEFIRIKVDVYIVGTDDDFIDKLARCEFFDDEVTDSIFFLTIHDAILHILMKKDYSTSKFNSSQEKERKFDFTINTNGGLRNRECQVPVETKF
In kind it is cell-based, murine. Particulars: for slc26a3 inhibition at 5 μM: 5 μM compound.

The nature of data set [1]: Pharmacokinetics in mice, serum concentration by LC/MS. In kind it is in vivo. Particulars: for bioavailability: mouse, serum, po.
Data set [2] has as its system loperamide-treated mice. Particulars: cited from earlier work.
Another data set deals with T2, slc26a6 (PAT-1) (Mus musculus, UniProt Q8CIW6).
T2 sequence (Q8CIW6 1-758): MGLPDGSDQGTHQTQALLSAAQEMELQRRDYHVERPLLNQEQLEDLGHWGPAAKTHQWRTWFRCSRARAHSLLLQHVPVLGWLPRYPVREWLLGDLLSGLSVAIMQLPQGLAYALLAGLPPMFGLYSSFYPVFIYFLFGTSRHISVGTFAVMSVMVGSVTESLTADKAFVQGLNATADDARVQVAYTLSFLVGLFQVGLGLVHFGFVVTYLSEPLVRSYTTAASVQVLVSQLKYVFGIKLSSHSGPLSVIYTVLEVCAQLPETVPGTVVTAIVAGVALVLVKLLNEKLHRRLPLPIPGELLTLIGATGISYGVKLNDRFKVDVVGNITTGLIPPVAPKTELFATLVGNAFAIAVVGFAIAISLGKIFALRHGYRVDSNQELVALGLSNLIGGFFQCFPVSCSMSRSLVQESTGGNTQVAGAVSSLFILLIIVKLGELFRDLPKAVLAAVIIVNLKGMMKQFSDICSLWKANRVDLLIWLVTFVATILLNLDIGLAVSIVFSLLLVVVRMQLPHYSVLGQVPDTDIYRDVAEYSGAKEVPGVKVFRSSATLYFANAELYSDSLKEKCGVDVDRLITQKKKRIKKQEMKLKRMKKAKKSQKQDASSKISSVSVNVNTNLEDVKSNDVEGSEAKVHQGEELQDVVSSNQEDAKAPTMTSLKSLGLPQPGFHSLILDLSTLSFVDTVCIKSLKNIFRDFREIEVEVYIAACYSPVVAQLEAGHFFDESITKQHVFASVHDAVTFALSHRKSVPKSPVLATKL
In kind it is cell-based, murine. Particulars: 10 μM compound, 10 min preincubation.

In the next data set the target is T3, slc26a4 (pendrin) (Mus musculus, UniProt Q9R155).
T3 sequence (Q9R155 1-780): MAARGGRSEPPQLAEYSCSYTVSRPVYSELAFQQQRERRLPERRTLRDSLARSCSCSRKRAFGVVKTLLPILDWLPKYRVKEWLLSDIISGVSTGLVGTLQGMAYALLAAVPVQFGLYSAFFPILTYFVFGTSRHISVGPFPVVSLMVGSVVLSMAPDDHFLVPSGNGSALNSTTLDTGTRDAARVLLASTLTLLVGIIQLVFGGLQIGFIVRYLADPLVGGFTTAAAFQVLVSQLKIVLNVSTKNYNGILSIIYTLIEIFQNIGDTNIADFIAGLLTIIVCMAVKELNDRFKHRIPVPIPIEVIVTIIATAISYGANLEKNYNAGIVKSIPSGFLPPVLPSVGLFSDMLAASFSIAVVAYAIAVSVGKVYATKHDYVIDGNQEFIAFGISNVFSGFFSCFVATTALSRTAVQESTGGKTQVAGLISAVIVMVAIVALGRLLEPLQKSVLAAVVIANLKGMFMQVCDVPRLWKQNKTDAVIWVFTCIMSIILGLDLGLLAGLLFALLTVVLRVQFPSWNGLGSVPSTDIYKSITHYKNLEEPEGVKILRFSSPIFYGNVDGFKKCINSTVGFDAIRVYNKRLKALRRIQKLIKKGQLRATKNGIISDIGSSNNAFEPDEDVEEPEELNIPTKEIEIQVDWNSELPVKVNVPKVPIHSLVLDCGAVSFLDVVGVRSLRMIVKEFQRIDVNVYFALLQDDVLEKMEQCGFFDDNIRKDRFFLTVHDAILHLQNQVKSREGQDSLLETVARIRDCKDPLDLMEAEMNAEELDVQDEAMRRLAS
In kind it is cell-based, murine. Particulars: 10 μM compound, 10 min preincubation.

Data set [3] relates to loperamide-treated mice. The data set can be described thus: Loperamide-induced constipation model in mice. In kind it is in vivo. Particulars: for Stool water content: 3 h stool.
Another data set addresses T4, SLC26A9 (Homo sapiens, UniProt Q7LBE3).
T4 sequence (Q7LBE3 1-791): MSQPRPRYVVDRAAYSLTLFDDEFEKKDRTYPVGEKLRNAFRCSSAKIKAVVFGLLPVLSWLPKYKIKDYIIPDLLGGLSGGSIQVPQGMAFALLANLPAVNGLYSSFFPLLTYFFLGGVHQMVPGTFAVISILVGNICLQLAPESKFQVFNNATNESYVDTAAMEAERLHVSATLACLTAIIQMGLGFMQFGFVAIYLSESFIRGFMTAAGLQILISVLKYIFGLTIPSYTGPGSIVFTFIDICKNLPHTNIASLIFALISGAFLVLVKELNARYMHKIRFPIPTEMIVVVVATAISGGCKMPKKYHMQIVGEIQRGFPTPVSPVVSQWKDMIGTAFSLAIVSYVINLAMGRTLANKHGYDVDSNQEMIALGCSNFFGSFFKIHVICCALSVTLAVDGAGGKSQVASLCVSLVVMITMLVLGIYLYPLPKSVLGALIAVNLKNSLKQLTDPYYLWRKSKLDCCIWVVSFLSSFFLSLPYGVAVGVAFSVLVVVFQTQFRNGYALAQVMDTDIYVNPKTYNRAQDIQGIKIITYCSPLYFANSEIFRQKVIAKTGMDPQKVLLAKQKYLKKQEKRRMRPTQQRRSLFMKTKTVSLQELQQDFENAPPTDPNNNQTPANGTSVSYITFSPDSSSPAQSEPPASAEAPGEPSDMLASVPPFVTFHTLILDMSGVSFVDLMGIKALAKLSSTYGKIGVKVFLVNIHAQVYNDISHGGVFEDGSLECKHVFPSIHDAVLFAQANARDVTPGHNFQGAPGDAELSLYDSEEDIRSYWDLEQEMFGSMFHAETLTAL
In kind it is cell-based. Particulars: 10 μM compound, 10 min preincubation.

In the case of `Cc1cccc(S(=O)(=O)Oc2ccc3c(C)c(CC(=O)O)c(=O)oc3c2C)c1` [4aq], the “slc26a3 inhibition at 5 μM” value on slc26a3 (DRA) is reported as “no inhibition”.
On to `COc1ccc2ccc(=O)oc2c1` [S3], for which the “slc26a3 inhibition activity, in words” value on slc26a3 (DRA) was “inactive”.
For `Cc1c(CC(=O)O)c(=O)oc2c(C)c(OCCn3cccc3)ccc12` [4ap], the “slc26a3 inhibition at 5 μM” value on slc26a3 (DRA) was “inactive”.
The same measure, in the same setting: then `C=CCOc1ccc2c(C)c(CC(=O)O)c(=O)oc2c1C` [4aa], with “no inhibition”.
`Cc1c(OCc2cccc(Br)c2)ccc2cc(C(=O)O)c(=O)oc12` [8aa]: the “slc26a3 inhibition activity, in words” value at slc26a3 (DRA) is “inactive”.
As for `Cc1c(CC(=O)O)c(=O)oc2c(C)c(OCCc3cccc(C(F)(F)F)c3)ccc12` [4as], the “slc26a3 inhibition at 5 μM” value at slc26a3 (DRA) is given as “no inhibition”.
`Cc1c(CC(=O)O)c(=O)oc2c(C)c(OS(=O)(=O)c3cccc(Cl)c3)ccc12` [4ar]: the “slc26a3 inhibition at 5 μM” value at slc26a3 (DRA) was “no inhibition”.
As for `Cc1c(CC(=O)O)c(=O)oc2c(C)c(OCc3cccc(Br)c3)ccc12` [4ba, 2-(7-((3-Bromobenzyl)oxy)-4,8-dimethyl-2-oxo-2H-chromen-3-yl)acetic Acid], the bioavailability (in general, the share of a dose that reaches the circulation, judged against a reference dose that is usually intravenous) in data set [1] (5 mg/kg) was determined as 54 ± 6.5%. Further, the “Efficacy in a mouse model of constipation” value with loperamide-treated mice [2] is “showed efficacy”.
Regarding `Cc1c(CC(=O)O)c(=O)oc2c(C)c(OCc3cccc(I)c3)ccc12` [4az], the “Inhibition of chloride/iodide exchange, slc26a6 (PAT-1)” value at slc26a6 (PAT-1) is recorded as “not significantly inhibited”. The “Inhibition of chloride/iodide exchange, slc26a4 (pendrin)” value at slc26a4 (pendrin) was “not significantly inhibited”. In addition, at slc26a3 (DRA), the “Extent of inhibition of slc26a3-mediated anion exchange” value is listed as “fully inhibited”. For the same molecule, the “Duration of predicted therapeutic concentrations in serum” value in data set [1] (mice, single 10 mg/kg dose, oral (b1), oral or intraperitoneal) is over 72 h. The bioavailability in data set [1] (10 mg/kg) amounted to 39 ± 4%. In addition, the “Effect on stool parameters compared to vehicle” value in the data set with loperamide-treated mice [3] (control mice not treated with loperamide) is “no significant effect”. The Stool water content entry in the data set on loperamide-treated mice [3] (loperamide-treated mice, 3 mg/kg oral) was “fully normalized”; in the data set on loperamide-treated mice [3] (loperamide-treated mice, 10 mg/kg oral), “fully normalized”. For the same molecule, the “Inhibition of chloride/iodide exchange, SLC26A9” value at SLC26A9 is “not significantly inhibited”.
Take `CCCOc1ccc2c(C)c(CC(=O)O)c(=O)oc2c1C` [4ad]: the “slc26a3 inhibition at 5 μM” value on slc26a3 (DRA) is recorded as “no inhibition”.
Regarding `Cc1c(CC(=O)O)c(=O)oc2c(C)c(OCc3cccc(C(F)(F)F)c3)ccc12` [4be], on slc26a6 (PAT-1), the “Inhibition of chloride/iodide exchange, slc26a6 (PAT-1)” value is “not significantly inhibited”. For the same molecule, the “Inhibition of chloride/iodide exchange, slc26a4 (pendrin)” value at slc26a4 (pendrin) was “not significantly inhibited”. Further, on slc26a3 (DRA), the “Extent of inhibition of slc26a3-mediated anion exchange” value was “fully inhibited”. In data set [1] (mice, single dose 5 mg/kg oral or intraperitoneal, 16 h), the “Serum level at 16 h” value is “little compound remaining”. The molecule further registered a bioavailability in data set [1] (5 mg/kg) of 16 ± 7%. Further, the “3 h stool weight, pellet number, and water content” value in the data set on loperamide-treated mice [3] (loperamide-treated mice, 5 mg/kg oral 1 h before loperamide, 5 mg/kg) is on record as “partially prevented constipation; also recorded: improved”. The “Inhibition of chloride/iodide exchange, SLC26A9” value on SLC26A9 is “not significantly inhibited”.
For `Cc1c(CC(N)=O)c(=O)oc2c(C)c(OCc3cccc(Br)c3)ccc12` [8ae], the “slc26a3 inhibition activity, in words” value at slc26a3 (DRA) is reported as “much reduced inhibition”.
